Assays:
[1] = tested on: Epidermal growth factor receptor (Homo sapiens), P00533 [UNDEFINED MUTATION]; settings: Compound concentration 1000.0 nM
[2] = target: T1, Calcium/calmodulin-dependent protein kinase type IV (Homo sapiens) (UniProt Q16566); settings: Compound concentration 1000.0 nM
T1 sequence (whole entry): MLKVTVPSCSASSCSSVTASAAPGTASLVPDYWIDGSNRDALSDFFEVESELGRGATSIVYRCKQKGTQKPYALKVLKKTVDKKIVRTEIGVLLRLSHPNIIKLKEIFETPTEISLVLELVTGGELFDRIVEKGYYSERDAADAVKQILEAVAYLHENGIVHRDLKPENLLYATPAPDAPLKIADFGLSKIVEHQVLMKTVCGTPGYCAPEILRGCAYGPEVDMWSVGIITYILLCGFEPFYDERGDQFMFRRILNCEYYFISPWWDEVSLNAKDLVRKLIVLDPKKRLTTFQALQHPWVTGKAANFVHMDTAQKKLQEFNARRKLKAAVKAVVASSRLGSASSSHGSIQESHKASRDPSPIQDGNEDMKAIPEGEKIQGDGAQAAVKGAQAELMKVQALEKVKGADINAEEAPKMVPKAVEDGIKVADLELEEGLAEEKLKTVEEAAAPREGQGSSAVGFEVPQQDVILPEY

[3] = target: Serine/threonine-protein kinase N1 (Homo sapiens) (UniProt Q16512); settings: Compound concentration 1000.0 nM
[4] = target: Fibroblast growth factor receptor 3 (Homo sapiens) (UniProt P22607); settings: Compound concentration 1000.0 nM
[5] = target: Dual serine/threonine and tyrosine protein kinase (Homo sapiens) (UniProt Q6XUX3); settings: Compound concentration 1000.0 nM
[6] = target: Myosin-IIIb (Homo sapiens) (UniProt Q8WXR4); settings: Compound concentration 1000.0 nM
[7] = target: Tyrosine-protein kinase SYK (Homo sapiens) (UniProt P43405); settings: Compound concentration 1000.0 nM
[8] = target: Beta-3 adrenergic receptor (Homo sapiens) (UniProt P13945); settings: Compound concentration 10.0 uM
[9] = target: Dual specificity tyrosine-phosphorylation-regulated kinase 1B (Homo sapiens) (UniProt Q9Y463); settings: Compound concentration 1000.0 nM
[10] = target: Cyclin-dependent kinase 14 (Homo sapiens) (UniProt O94921); settings: Compound concentration 1000.0 nM
[11] = target: Tyrosine-protein kinase receptor Tie-1 (Homo sapiens) (UniProt P35590); settings: Compound concentration 1000.0 nM
[12] = target: Angiopoietin-1 receptor (Homo sapiens) (UniProt Q02763); settings: Compound concentration 1000.0 nM
[13] = target: Mitogen-activated protein kinase 1 (Homo sapiens) (UniProt P28482); settings: Compound concentration 1000.0 nM
[14] = tested on: Epidermal growth factor receptor (Homo sapiens), P00533 [L861Q]; settings: Compound concentration 1000.0 nM
[15] = target: T2, Serine/threonine-protein kinase DCLK2 (Homo sapiens) (UniProt Q8N568); settings: Compound concentration 1000.0 nM
T2 sequence (whole entry): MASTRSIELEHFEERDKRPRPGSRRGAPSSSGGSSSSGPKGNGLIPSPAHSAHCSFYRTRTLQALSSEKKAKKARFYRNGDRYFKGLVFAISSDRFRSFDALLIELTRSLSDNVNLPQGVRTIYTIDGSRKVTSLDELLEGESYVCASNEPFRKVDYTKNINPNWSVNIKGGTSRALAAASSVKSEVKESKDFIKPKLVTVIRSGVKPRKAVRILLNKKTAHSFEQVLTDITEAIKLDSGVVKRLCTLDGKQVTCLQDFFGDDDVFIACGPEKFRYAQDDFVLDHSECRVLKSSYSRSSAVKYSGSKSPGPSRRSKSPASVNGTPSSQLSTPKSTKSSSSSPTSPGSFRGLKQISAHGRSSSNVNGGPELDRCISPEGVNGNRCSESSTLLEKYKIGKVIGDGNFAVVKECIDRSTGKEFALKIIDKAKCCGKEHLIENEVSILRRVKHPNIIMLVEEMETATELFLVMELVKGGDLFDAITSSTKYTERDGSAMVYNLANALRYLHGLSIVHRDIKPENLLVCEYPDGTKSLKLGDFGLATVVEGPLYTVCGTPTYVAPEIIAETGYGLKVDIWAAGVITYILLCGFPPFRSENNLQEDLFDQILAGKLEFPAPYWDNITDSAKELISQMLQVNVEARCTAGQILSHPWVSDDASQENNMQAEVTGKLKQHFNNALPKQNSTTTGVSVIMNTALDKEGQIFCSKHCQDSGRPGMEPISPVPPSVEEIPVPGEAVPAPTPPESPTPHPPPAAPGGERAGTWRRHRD

[16] = tested on: Epidermal growth factor receptor (Homo sapiens), P00533 [T790M]; settings: Compound concentration 1000.0 nM
[17] = target: T3, Beta-adrenergic receptor kinase 1 (Homo sapiens) (UniProt P25098); settings: Compound concentration 1000.0 nM
T3 sequence (whole entry): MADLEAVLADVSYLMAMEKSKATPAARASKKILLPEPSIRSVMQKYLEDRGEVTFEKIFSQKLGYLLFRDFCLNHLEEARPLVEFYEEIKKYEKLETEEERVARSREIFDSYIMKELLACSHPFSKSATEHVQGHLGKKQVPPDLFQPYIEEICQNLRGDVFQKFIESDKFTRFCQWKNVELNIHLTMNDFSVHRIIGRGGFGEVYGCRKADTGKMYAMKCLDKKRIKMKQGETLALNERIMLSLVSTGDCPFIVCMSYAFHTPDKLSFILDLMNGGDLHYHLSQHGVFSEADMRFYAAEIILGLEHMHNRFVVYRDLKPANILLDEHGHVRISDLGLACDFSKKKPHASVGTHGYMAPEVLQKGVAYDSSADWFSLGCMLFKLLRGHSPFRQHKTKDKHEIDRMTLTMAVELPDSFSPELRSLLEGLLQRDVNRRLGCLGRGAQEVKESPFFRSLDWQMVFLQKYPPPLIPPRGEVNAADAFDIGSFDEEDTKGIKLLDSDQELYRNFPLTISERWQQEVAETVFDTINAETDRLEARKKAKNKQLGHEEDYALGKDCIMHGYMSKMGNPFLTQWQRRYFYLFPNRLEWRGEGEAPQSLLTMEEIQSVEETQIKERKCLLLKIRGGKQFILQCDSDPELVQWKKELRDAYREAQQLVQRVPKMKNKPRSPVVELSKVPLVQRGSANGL

[18] = target: Ribosomal protein S6 kinase alpha-4 (Homo sapiens) (UniProt O75676); settings: Compound concentration 1000.0 nM
Chain of Ribosomal protein S6 kinase alpha-4 (Homo sapiens) (O75676 whole entry, looked up): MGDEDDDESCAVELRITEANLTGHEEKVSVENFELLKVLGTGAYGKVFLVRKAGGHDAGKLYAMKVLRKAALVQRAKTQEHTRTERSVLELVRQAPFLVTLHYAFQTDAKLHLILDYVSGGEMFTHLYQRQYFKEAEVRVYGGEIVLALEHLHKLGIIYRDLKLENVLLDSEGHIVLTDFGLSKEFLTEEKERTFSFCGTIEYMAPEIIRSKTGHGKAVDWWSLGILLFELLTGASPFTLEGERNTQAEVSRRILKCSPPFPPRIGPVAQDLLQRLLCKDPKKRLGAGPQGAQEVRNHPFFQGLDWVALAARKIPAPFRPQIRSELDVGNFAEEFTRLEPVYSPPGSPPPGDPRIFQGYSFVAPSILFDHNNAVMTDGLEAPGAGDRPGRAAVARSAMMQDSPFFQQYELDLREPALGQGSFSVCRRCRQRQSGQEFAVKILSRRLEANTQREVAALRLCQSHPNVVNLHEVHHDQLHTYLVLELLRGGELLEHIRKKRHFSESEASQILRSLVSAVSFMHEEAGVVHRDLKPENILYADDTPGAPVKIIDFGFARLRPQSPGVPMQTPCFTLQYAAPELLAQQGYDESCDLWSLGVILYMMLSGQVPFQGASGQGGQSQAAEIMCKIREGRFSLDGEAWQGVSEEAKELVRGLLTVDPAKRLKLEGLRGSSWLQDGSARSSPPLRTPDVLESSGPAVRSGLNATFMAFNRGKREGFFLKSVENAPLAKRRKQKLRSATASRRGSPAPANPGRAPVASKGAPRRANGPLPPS

Chain of Fibroblast growth factor receptor 3 (Homo sapiens) (P22607 23-806 limits assumed): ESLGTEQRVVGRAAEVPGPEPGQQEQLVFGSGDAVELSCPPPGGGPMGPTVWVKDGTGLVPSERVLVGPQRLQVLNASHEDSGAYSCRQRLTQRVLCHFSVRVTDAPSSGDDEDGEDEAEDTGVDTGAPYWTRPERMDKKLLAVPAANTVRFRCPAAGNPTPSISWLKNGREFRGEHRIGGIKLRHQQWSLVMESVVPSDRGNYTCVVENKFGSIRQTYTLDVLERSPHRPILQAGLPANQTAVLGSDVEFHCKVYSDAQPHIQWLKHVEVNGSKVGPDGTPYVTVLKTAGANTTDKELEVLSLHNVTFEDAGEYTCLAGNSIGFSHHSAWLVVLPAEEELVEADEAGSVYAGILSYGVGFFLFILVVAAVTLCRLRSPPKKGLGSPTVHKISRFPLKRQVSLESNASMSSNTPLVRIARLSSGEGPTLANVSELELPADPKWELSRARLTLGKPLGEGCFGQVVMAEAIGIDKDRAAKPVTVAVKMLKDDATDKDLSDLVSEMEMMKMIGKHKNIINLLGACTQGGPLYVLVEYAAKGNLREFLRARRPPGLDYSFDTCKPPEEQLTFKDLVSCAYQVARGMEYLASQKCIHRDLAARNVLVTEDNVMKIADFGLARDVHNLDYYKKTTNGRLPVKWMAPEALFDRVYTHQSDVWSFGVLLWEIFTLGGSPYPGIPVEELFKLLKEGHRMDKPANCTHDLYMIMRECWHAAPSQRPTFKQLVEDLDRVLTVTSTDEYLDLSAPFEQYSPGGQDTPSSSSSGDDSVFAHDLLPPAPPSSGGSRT
Chain of Dual serine/threonine and tyrosine protein kinase (Homo sapiens) (Q6XUX3 whole entry): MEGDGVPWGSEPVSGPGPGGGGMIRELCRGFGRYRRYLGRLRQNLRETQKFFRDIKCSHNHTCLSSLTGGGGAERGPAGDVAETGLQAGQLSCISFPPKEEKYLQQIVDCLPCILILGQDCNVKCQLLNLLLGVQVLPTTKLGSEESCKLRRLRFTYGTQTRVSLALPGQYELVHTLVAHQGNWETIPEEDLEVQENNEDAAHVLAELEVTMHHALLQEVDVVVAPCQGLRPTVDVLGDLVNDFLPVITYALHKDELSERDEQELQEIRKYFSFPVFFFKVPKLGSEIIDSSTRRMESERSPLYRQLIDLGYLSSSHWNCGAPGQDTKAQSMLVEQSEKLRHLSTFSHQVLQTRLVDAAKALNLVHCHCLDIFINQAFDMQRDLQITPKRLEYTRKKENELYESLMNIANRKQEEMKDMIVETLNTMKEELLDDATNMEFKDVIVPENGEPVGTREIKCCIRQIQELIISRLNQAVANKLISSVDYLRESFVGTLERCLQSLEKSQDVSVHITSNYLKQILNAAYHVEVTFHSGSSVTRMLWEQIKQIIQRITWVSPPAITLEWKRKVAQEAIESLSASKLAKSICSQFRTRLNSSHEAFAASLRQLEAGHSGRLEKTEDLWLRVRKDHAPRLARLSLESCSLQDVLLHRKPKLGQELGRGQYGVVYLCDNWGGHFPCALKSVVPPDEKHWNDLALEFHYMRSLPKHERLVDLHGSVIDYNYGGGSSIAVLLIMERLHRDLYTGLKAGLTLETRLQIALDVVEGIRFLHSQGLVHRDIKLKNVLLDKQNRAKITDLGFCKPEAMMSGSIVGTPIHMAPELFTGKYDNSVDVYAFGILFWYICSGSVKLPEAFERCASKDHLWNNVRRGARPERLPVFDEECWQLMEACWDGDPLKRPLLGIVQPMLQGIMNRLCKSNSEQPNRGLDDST
Chain of Serine/threonine-protein kinase N1 (Homo sapiens) (Q16512 2-942 limits assumed): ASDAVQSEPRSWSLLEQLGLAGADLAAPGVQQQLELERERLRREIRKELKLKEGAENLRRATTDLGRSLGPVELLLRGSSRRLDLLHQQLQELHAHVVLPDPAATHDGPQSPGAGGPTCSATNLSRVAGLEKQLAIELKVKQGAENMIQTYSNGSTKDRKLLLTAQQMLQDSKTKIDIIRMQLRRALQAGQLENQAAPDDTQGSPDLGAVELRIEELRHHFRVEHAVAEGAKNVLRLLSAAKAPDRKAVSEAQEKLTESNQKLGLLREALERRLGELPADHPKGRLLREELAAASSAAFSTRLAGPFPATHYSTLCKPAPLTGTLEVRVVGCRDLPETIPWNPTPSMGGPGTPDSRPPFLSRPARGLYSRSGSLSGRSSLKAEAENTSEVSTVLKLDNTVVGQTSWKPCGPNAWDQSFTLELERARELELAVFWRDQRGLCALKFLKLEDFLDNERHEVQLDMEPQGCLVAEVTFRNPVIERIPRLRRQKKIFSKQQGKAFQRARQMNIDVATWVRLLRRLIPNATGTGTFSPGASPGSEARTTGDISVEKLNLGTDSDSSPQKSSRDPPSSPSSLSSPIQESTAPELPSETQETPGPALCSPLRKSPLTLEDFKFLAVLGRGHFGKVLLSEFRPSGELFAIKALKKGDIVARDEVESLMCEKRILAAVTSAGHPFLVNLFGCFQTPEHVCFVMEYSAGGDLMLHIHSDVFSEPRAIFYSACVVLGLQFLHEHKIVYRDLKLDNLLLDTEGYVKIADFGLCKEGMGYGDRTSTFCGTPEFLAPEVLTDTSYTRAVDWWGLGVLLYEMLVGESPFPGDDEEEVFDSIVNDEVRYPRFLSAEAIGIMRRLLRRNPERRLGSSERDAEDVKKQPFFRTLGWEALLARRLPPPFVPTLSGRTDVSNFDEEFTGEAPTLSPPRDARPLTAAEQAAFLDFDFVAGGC
Chain of Angiopoietin-1 receptor (Homo sapiens) (Q02763 whole entry): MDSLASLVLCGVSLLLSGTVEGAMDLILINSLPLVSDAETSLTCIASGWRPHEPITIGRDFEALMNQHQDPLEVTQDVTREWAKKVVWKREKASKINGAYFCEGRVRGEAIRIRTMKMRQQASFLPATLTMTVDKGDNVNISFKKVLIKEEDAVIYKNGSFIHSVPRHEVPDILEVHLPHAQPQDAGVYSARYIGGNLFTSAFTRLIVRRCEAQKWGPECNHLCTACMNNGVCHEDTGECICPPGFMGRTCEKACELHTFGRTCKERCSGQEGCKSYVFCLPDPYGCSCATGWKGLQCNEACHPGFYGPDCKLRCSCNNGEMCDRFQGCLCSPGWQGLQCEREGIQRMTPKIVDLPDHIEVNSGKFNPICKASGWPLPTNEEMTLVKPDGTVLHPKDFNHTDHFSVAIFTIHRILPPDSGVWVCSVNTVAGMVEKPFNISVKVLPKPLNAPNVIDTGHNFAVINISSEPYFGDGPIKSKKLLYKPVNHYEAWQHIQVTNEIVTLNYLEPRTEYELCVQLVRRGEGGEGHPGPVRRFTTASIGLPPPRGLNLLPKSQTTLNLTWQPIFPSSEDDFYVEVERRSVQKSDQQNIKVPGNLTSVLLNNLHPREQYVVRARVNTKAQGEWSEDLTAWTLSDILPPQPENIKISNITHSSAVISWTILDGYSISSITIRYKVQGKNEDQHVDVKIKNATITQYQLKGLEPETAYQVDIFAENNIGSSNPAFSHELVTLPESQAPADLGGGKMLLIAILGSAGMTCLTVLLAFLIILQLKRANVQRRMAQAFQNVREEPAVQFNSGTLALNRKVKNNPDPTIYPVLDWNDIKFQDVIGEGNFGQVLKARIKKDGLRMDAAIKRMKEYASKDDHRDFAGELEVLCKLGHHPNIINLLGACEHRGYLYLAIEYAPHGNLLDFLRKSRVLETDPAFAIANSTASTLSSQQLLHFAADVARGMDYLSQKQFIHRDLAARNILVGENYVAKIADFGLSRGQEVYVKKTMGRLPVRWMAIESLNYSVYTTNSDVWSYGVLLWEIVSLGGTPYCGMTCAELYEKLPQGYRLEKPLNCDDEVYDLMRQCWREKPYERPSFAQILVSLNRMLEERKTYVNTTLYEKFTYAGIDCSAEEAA
Chain of Mitogen-activated protein kinase 1 (Homo sapiens) (P28482 whole entry): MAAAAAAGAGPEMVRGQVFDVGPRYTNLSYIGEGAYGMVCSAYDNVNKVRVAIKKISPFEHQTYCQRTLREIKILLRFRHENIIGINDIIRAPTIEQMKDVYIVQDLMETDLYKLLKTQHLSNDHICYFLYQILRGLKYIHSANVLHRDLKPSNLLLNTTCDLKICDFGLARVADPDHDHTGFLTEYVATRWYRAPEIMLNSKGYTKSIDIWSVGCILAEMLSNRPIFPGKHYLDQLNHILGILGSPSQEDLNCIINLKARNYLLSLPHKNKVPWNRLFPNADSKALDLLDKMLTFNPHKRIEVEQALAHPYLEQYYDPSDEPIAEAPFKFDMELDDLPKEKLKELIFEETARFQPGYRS

CN(C)C(=O)Cn1cc(-c2nc(C3(c4ccc(-c5cnc(N)nc5)cc4)CC3)no2)cn1 [BI 0153]
inactive: residual activity [1] 100% | residual activity [2] 100% | residual activity [3] 84% | residual activity [4] 100% | residual activity [5] 94% | residual activity [6] 100% | residual activity [7] 77% | inhibition [8] 3.06% | residual activity [9] 66% | residual activity [10] 100% | residual activity [11] 98% | residual activity [12] 88% | residual activity [13] 81% | residual activity [14] 100% | residual activity [15] 96% | residual activity [16] 80% | residual activity [17] 67% | residual activity [18] 91%

CN(C)C(=O)Cn1cc(-c2nc([C@@](C)(c3ccc(-c4cnc(N)nc4)cc3)C3CC3)no2)cn1 [BI 665915]
inactive: residual activity [1] 100% | residual activity [2] 83% | residual activity [3] 99% | residual activity [4] 94% | residual activity [5] 57% | residual activity [6] 70% | residual activity [7] 73% | inhibition [8] 9.54% | residual activity [9] 98% | residual activity [10] 99% | residual activity [11] 90% | residual activity [12] 100% | residual activity [13] 100% | residual activity [14] 100% | residual activity [15] 91% | residual activity [16] 100% | residual activity [17] 78% | residual activity [18] 100%

Reference: ChEMBL document CHEMBL4507276 (2021)
